Test results taken from a melting point compilation (Tetko et al.; mined from patent text by program, amines drawn as free bases though some values may be those of a salt).

Point of comparison: `O=C1COC(C#CC2CC2)(C(F)(F)F)c2cc(Cl)ccc2N1` (stereo not drawn), melting point 200 °C. Against it:
- COc1ccc(Cl)cc1C(=O)NCCc1ccc(-c2ccc(S(C)(=O)=O)cc2)c(S(N)(=O)=O)c1 — lower, 114 °C
- O=C(O)c1cccc(C(=O)c2ccc(C3CCCCC3)cc2)c1 — lower, 180 to 185 °C
- NNc1ccnc(-c2cccc(I)c2)n1 — lower, 179 to 181 °C
- CN1CCN2c3ccc([N+](=O)[O-])cc3C(c3cccs3)=NCC2C1 (stereo not drawn) — lower, 174 to 175 °C
- COc1cc2c3c(c1)c(=O)c(Cc1cccnc1)cn3-c1ccc(Br)cc1S2 — lower, 157 to 159 °C
- C#CCON=C(CCC)C1=C(O)CC(c2ccc(C(=O)SC)cc2)CC1=O (stereo not drawn) — lower, 95 to 96 °C
- O=C(C[N+](=O)[O-])c1ncn(Cc2ccccc2)c1[N+](=O)[O-] — lower, 105 to 107 °C
- CC1(C)Oc2ccc(OCc3ccccc3)cc2C2OC21 (stereo not drawn) — lower, 70 to 72 °C
- COC(=O)C(C)(C)Oc1cc(C)c(C)c(Br)c1C — lower, 66 to 68 °C
- CC(=O)CC(=O)Nc1c(C(=O)c2ccccc2)[nH]c2cc(Cl)ccc12 — lower, 170 to 173 °C
- Cc1c(C#N)c(C(F)(F)F)nn1-c1c(Cl)cc(C(F)(F)F)cc1Cl — lower, 90 to 92 °C
- CNC(=NCCSCc1ccc2nc[nH]c2c1)NC#N — lower, 191 °C
- OC(CS)(Cn1cncn1)c1ccc(F)cc1F (stereo not drawn) — lower, 112 to 113 °C
- N#Cc1ccccc1-c1ccc(OCC(=O)C2CC2)cc1 — lower, 82 to 84 °C
- CCCCc1cc(=O)oc2cc(O)cc(O)c12 — higher, 236 to 237 °C
- Cn1cc(-c2cc3cccnc3[nH]2)c2ccc(C(=O)O)cc21 — higher, 359 to 361 °C
- CC1CCc2c(-c3ccccc3)nc(=O)n(C(C)C)c2C1 (stereo not drawn) — lower, 150 to 153 °C
- CCCN(C1=C(O)C[C@@](CCc2cccc(O)c2)(C2CCCC2)OC1=O)c1ccccc1 — lower, 74 to 76 °C
- CCOC(=O)NC(C)C(=O)c1ccc2cc(OC)ccc2c1 (single isomer, unassigned; (+)) — lower, 96 to 97 °C
- CS(=O)(=O)CCCCCn1c(C(F)(F)F)nc2c(N)nc3ccccc3c21 — lower, 192 to 195 °C
- O=c1nc(-c2ccccc2)c2cc([N+](=O)[O-])ccc2n1Cc1cccs1 — higher, 219 to 220 °C
- Cc1nc(C)c(C)c(NCCNCC(O)COc2ccccc2)n1 (stereo not drawn) — lower, 119 to 121 °C
- c1c(NC23CC4CC(CC(C4)C2)C3)nc(NC23CC4CC(CC(C4)C2)C3)nc1N1CCNCC1 — lower, 168 to 175 °C
- N#CC(NCc1cccnc1)c1ccoc1 (stereo not drawn) — lower, 80 to 82 °C
- COc1ccc(C(=O)Nc2ccc(C(=O)O)c3ccccc23)cc1OC — higher, 256 to 259 °C
- O=[N+]([O-])c1ccccc1-c1oc2ccc(CBr)cc2c1Br — lower, 118 °C
- COC(=O)c1cc(N(CCO)CCO)c(S(C)(=O)=O)cc1[N+](=O)[O-] — lower, 99 to 100 °C
- CCCCN(CCCC)c1ccc(C=Cc2ccc(C=CC3=C(C#N)C(=C(C#N)C#N)OC3(c3ccccc3)C(F)(F)F)s2)c(OC)c1 (stereo not drawn) — higher, 203 to 204 °C
- CSc1nn(-c2c(Cl)cc(C(F)(F)F)cc2Cl)c2ncnc(-c3ccccc3Cl)c12 — lower, 156 to 158 °C
- CC(C)(C)OC(=O)N1C(=O)O[C@@H](c2ccncc2)[C@H]1Cc1ccc(C(F)(F)F)cc1 (racemic) — lower, 166 to 168 °C
- CCOC(=O)N1CCN(c2ccc(C(=O)CCc3ccc(NC4=NCCN4)cc3)cc2)CC1 — lower, 150 to 151 °C
- CC1C(=O)Oc2cc(N3CCOCC3)c(Br)cc21 (stereo not drawn) — lower, 99 to 100 °C
- CN1C(=O)[C@H](NC(=O)/C=C/c2ccc(F)cc2F)N=C(c2ccccc2)c2ccccc21 — lower, 121 to 123 °C
- COc1cc(C2CCN(CCF)CC2)ccc1Nc1ncc2ccc(-c3ccccc3N(C)S(C)(=O)=O)n2n1 — lower, 90 to 97 °C
- COc1cccc(CCC(c2ccccc2)C(O)c2ccc(O)cc2)c1 (stereo not drawn) — lower, 100 to 103 °C
- CCOC(=O)c1c(-c2ccncc2)[nH]c(-c2ccncc2)c1CC — higher, 212 to 215 °C
- COc1ccc(S(=O)(=O)Nc2cccc(C)c2NC(=O)c2ccc(F)cc2)cc1 — higher, 204 to 206 °C
